Assay results taken from US20060130172A1, “Gene encoding resistance to acetolactate synthase-inhibiting herbicides” (priority 2003, published 2006).

Columns and labels:
[1] = test system: R11-AMACH smooth pigweed; assay: Greenhouse screen of ALS-inhibiting herbicides on resistant smooth pigweed biotype; type: in vivo, Amaranthus hybridus L.; conditions: 3 WAT; for Biomass Reduction: compared to untreated plant biomass; for Biomass: plant dry weight; for Visual Control: scale 0-99%
Excerpt: (§1) Seeds from a smooth pigweed (Aniaranthus hybridus L.) population (R11-AMACH) were collected from a field in southeastern Pennsylvania where extreme ALS-inhibitor herbicide selection pressure was imposed over a several year period within continuous soybean production. R11-AMACH was selected naturally with ALS-inhibiting herbicides representative of the SU, IMI, and TP herbicide chemistries.
(§2) To establish levels and patterns of ALS resistance, R11-AMACH and an ALS susceptible smooth pigweed biotype (S-AMACH) were screened in the greenhouse with various rates of the ALS-inhibiting herbicides, chlorimuron (SU), thifensulfuron (SU), imazethapyr (IMI), pyrithiobac (POB), and cloransulam-methyl (TP). Rates evaluated were based on a log10 scale that included 0, 1/100×, 1/10×, 1×, 10×, and 100×, where 1× corresponds to the normal use rate in the field. R11-AMACH responded differently to the rate increase as compared to S-AMACH. […] Visual control, height, biomass, and biomass reduction are presented separately for chlorimuron (Table 3), thifensulfuron (Table 4), imazethapyr (Table 5), pyrithiobac (Table 6), and cloransulam (Table 7). Evaluations and measurements were recorded 3 weeks after herbicide treatment (WAT). Visual control was based on a scale of 0-99%, where 0% represents no control and 99% represents complete control. Biomass represents plant dry weights recorded several days after plants were harvested. Biomass reduction was calculated based on the amount of biomass reduced by herbicide treatment compared to the untreated plant biomass.

[2] = test system: S-AMACH smooth pigweed; assay: Greenhouse screen of ALS-inhibiting herbicides on susceptible smooth pigweed biotype; type: in vivo, Amaranthus hybridus L.; conditions: 3 WAT; for Biomass Reduction: compared to untreated plant biomass; for Biomass: plant dry weight; for Visual Control: scale 0-99%
Excerpt: as §1, §2

[3] = rate 1/100× (1× = normal use rate in the field)

With `CCc1cnc(C2=NC(C)(C(C)C)C(=O)N2)c(C(=O)O)c1` (stereo not drawn) [imazethapyr, 2-[4,5-dihydro-4-methyl-4-(1-methylethyl)-5-oxo-1H-imidazol-2-yl]-5-ethyl-3-pyridinecarboxylic acid] the Height ([1]; rate 1/10×) was 28.0 cm, the “Biomass Reduction” value ([1]; rate 1/10×) was 21.1% and the Biomass ([1]; rate 1/10×) was 3.00 g. For the same compound, the “Visual Control” value ([1]; rate 1/10×) was 9%, the “Visual Control” value [1, 3] was 2% and the Height ([1]; rate 1/100×) was 32.8 cm. For the same compound, the “Biomass Reduction” value ([1]; rate 1/100×) was −8.2%, the Biomass ([1]; rate 1/100×) was 4.11 g and the “Visual Control” value ([1]; rate 1× (normal use rate)) was 16%. The Height ([1]; rate 1×) was 20.3 cm, the “Biomass Reduction” value ([1]; rate 1×) was 31.0% and the Biomass ([1]; rate 1×) was 2.62 g. For the same compound, the Height ([1]; rate 10×) was 6.8 cm, the “Biomass Reduction” value ([1]; rate 10×) was 86.8% and the Biomass ([1]; rate 10×) was 0.50 g. For the same compound, the “Visual Control” value ([1]; rate 10×) was 62%, the Height ([1]; rate 100×) was 3.3 cm and the “Biomass Reduction” value ([1]; rate 100×) was 96.1%. The Biomass ([1]; rate 100×) was 0.15 g, the “Visual Control” value ([1]; rate 100×) was 95% and the Height ([2]; rate 1/10×) was 10.3 cm. For the same compound, the “Biomass Reduction” value ([2]; rate 1/10×) was 81.6%, the Biomass ([2]; rate 1/10×) was 0.63 g and the “Visual Control” value ([2]; rate 1/10×) was 58%. The Height ([2]; rate 1/100×) was 25.3 cm, the “Biomass Reduction” value ([2]; rate 1/100×) was 42.3% and the Biomass ([2]; rate 1/100×) was 1.98 g. The “Visual Control” value ([2]; rate 1/100×) was 12%, the “Visual Control” value ([2]; rate 1× (normal use rate)) was 97% and the Height ([2]; rate 1×) was 2.3 cm. The “Biomass Reduction” value ([2]; rate 1×) was 98.3%, the Biomass ([2]; rate 1×) was 0.06 g and the Height ([2]; rate 10×) was 0.3 cm. For the same compound, the “Biomass Reduction” value ([2]; rate 10×) was 97.1%, the Biomass ([2]; rate 10×) was 0.10 g and the “Visual Control” value ([2]; rate 10×) was 99%. The Height ([2]; rate 100×) was 2.3 cm, the “Biomass Reduction” value ([2]; rate 100×) was 98.3% and the Biomass ([2]; rate 100×) was 0.06 g. For the same compound, the “Visual Control” value ([2]; rate 100×) was 95%.

For `COc1cc(Cl)nc(NC(=O)NS(=O)(=O)c2ccccc2C(=O)O)n1` [chlorimuron, 2-[[[[(4-chloro-6-methoxy-2-pyrimidinyl)-amino]carbonyl]amino]-sulfonyl]benzoic acid], the Height ([1]; rate 1/10×) was 26.5 cm, the “Biomass Reduction” value ([1]; rate 1/10×) was 3.7% and the Biomass ([1]; rate 1/10×) was 3.66 g. The “Visual Control” value ([1]; rate 1/10×) was 6%, the “Visual Control” value [1, 3] was 5% and the Height ([1]; rate 1/100×) was 23.5 cm. For the same compound, the “Biomass Reduction” value ([1]; rate 1/100×) was 10.0%, the Biomass ([1]; rate 1/100×) was 3.42 g and the “Visual Control” value ([1]; rate 1× (normal use rate)) was 15%. For the same compound, the Height ([1]; rate 1×) was 21.8 cm, the “Biomass Reduction” value ([1]; rate 1×) was 3.5% and the Biomass ([1]; rate 1×) was 3.67 g. The Height ([1]; rate 10×) was 23.5 cm, the “Biomass Reduction” value ([1]; rate 10×) was 17.1% and the Biomass ([1]; rate 10×) was 3.15 g. The “Visual Control” value ([1]; rate 10×) was 18%, the Height ([1]; rate 100×) was 14.8 cm and the “Biomass Reduction” value ([1]; rate 100×) was 56.8%. The Biomass ([1]; rate 100×) was 1.64 g, the “Visual Control” value ([1]; rate 100×) was 39% and the Height ([2]; rate 1/10×) was 14.3 cm. For the same compound, the “Biomass Reduction” value ([2]; rate 1/10×) was 52.0%, the Biomass ([2]; rate 1/10×) was 1.65 g and the “Visual Control” value ([2]; rate 1/10×) was 20%. The Height ([2]; rate 1/100×) was 27.8 cm, the “Biomass Reduction” value ([2]; rate 1/100×) was 30.9% and the Biomass ([2]; rate 1/100×) was 2.37 g. For the same compound, the “Visual Control” value ([2]; rate 1/100×) was 9%, the “Visual Control” value ([2]; rate 1× (normal use rate)) was 81% and the Height ([2]; rate 1×) was 4.8 cm. The “Biomass Reduction” value ([2]; rate 1×) was 95.8%, the Biomass ([2]; rate 1×) was 0.14 g and the Height ([2]; rate 10×) was 1.0 cm. For the same compound, the “Biomass Reduction” value ([2]; rate 10×) was 98.6%, the Biomass ([2]; rate 10×) was 0.05 g and the “Visual Control” value ([2]; rate 10×) was 99%. The Height ([2]; rate 100×) was 1.3 cm, the “Biomass Reduction” value ([2]; rate 100×) was 96.7% and the Biomass ([2]; rate 100×) was 0.11 g. The “Visual Control” value ([2]; rate 100×) was 99%.

With `CCOc1nc(F)cc2nc(S(=O)(=O)Nc3c(Cl)cccc3C(=O)OC)nn12` [cloransulammethyl] the Height ([1]; rate 1/10×) was 34.5 cm, the “Biomass Reduction” value ([1]; rate 1/10×) was 24.7% and the Biomass ([1]; rate 1/10×) was 8.16 g. For the same compound, the “Visual Control” value ([1]; rate 1/10×) was 23%, the “Visual Control” value [1, 3] was 0% and the Height ([1]; rate 1/100×) was 47.8 cm. The “Biomass Reduction” value ([1]; rate 1/100×) was 0.5%, the Biomass ([1]; rate 1/100×) was 10.78 g and the “Visual Control” value ([1]; rate 1× (normal use rate)) was 16%. For the same compound, the Height ([1]; rate 1×) was 37.6 cm, the “Biomass Reduction” value ([1]; rate 1×) was 30.8% and the Biomass ([1]; rate 1×) was 7.49 g. For the same compound, the Height ([1]; rate 10×) was 32.0 cm, the “Biomass Reduction” value ([1]; rate 10×) was 40.5% and the Biomass ([1]; rate 10×) was 6.44 g. For the same compound, the “Visual Control” value ([1]; rate 10×) was 39%, the Height ([1]; rate 100×) was 12.2 cm and the “Biomass Reduction” value ([1]; rate 100×) was 75.3%. The Biomass ([1]; rate 100×) was 2.68 g, the “Visual Control” value ([1]; rate 100×) was 63% and the Height ([2]; rate 1/10×) was 3.6 cm. For the same compound, the “Biomass Reduction” value ([2]; rate 1/10×) was 97.1%, the Biomass ([2]; rate 1/10×) was 0.25 g and the “Visual Control” value ([2]; rate 1/10×) was 91%. For the same compound, the Height ([2]; rate 1/100×) was 0.7 cm, the “Biomass Reduction” value ([2]; rate 1/100×) was 99.8% and the Biomass ([2]; rate 1/100×) was 0.02 g. The “Visual Control” value ([2]; rate 1/100×) was 97%, the “Visual Control” value ([2]; rate 1× (normal use rate)) was 96% and the Height ([2]; rate 1×) was 1.3 cm. For the same compound, the “Biomass Reduction” value ([2]; rate 1×) was 99.1%, the Biomass ([2]; rate 1×) was 0.08 g and the Height ([2]; rate 10×) was 0.0 cm. For the same compound, the “Biomass Reduction” value ([2]; rate 10×) was 100.0%, the Biomass ([2]; rate 10×) was 0.00 g and the “Visual Control” value ([2]; rate 10×) was 99%. The Height ([2]; rate 100×) was 0.0 cm, the “Biomass Reduction” value ([2]; rate 100×) was 100.0% and the Biomass ([2]; rate 100×) was 0.00 g. For the same compound, the “Visual Control” value ([2]; rate 100×) was 99%.
